Test results: PubChem BioAssay AID1963445 (Molecular Pharmacology Branch, DTP, NCI, 2024)
pIC50: −log10 of the molar value. Each block holds one compound with its values, some of them ahead of it.

System: MCF7 complex spheroid growth, % test/control
Assay: Anticancer human tumor MCF7 cell line growth inhibition [Asc];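 note: spheroids exposed to compounds for 7 days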;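 for viability, T/C: 100% = DMSO vehicle control wells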
Conditions: for pIC50: curve of first compound; for viability, T/C: stronger effect = lower value
How it was run: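 Complex solid-tumor spheroids incorporating human endothelial and mesenchymal stem cells received single agents or combinations over half-log dilution ranges anchored to clinical Cmax.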

[1] = second compound 0.00949 µM, first compound 0.0316 µM
[2] = second compound 0.00949 µM, first compound 0.1 µM
[3] = second compound 0.00949 µM, first compound 0.316 µM
[4] = second compound 0.00949 µM, first compound 1 µM
[5] = second compound 0.00949 µM, first compound 3.16 µM
[6] = second compound 0.00949 µM, first compound 10 µM
[7] = second compound 0.03 µM, first compound 0.0316 µM
[8] = second compound 0.03 µM, first compound 0.1 µM
[9] = second compound 0.03 µM, first compound 0.316 µM
[10] = second compound 0.03 µM, first compound 1 µM
[11] = second compound 0.03 µM, first compound 3.16 µM
[12] = second compound 0.03 µM, first compound 10 µM
[13] = second compound 0.0949 µM, first compound 0.0316 µM
[14] = second compound 0.0949 µM, first compound 0.1 µM
[15] = second compound 0.0949 µM, first compound 0.316 µM
[16] = second compound 0.0949 µM, first compound 1 µM
[17] = second compound 0.0949 µM, first compound 3.16 µM
[18] = second compound 0.0949 µM, first compound 10 µM
[19] = second compound 0.3 µM, first compound 0.0316 µM
[20] = second compound 0.3 µM, first compound 0.1 µM
[21] = second compound 0.3 µM, first compound 0.316 µM
[22] = second compound 0.3 µM, first compound 1 µM
[23] = second compound 0.3 µM, first compound 3.16 µM
[24] = second compound 0.3 µM, first compound 10 µM
[25] = second compound 0.949 µM, first compound 0.0316 µM
[26] = second compound 0.949 µM, first compound 0.1 µM
[27] = second compound 0.949 µM, first compound 0.316 µM
[28] = second compound 0.949 µM, first compound 1 µM
[29] = second compound 0.949 µM, first compound 3.16 µM
[30] = second compound 0.949 µM, first compound 10 µM
[31] = second compound 3 µM, first compound 0.0316 µM
[32] = second compound 3 µM, first compound 0.1 µM
[33] = second compound 3 µM, first compound 0.316 µM
[34] = second compound 3 µM, first compound 1 µM
[35] = second compound 3 µM, first compound 3.16 µM
[36] = second compound 3 µM, first compound 10 µM

pIC50 (second compound 0.00949 µM): 5.50 | pIC50 (second compound 0.03 µM): 5.49 | pIC50 (second compound 0.0949 µM): 5.93 | pIC50 (second compound 0.3 µM): > 7.50 | pIC50 (second compound 0.949 µM): > 7.50 | pIC50 (second compound 3 µM): > 7.50
Compound: C=C(F)C(=O)N1CCN(c2nc(OCC3CCCN3C)nc3c2CCN(c2cccc4cccc(Cl)c24)C3)CC1CC#N (stereo unspecified) + CCN1C(C(=O)NC23CCC(C(=O)O)(CC2)CC3)C(c2cccc(Cl)c2F)C2(C(=O)Nc3cc(Cl)ccc32)C12CCCCC2
viability, T/C [1]: 103% | viability, T/C [2]: 115% | viability, T/C [3]: 109% | viability, T/C [4]: 89.8% | viability, T/C [5]: 50.4% | viability, T/C [6]: 0.16% | viability, T/C [7]: 104% | viability, T/C [8]: 77.1% | viability, T/C [9]: 109% | viability, T/C [10]: 69.3% | viability, T/C [11]: 53.8% | viability, T/C [12]: 0.23% | viability, T/C [13]: 50.4% | viability, T/C [14]: 52.5% | viability, T/C [15]: 50.5% | viability, T/C [16]: 57.5% | viability, T/C [17]: 33.6% | viability, T/C [18]: 0.14% | viability, T/C [19]: 30.5% | viability, T/C [20]: 28% | viability, T/C [21]: 34.2% | viability, T/C [22]: 34.8% | viability, T/C [23]: 10.5% | viability, T/C [24]: 0.24% | viability, T/C [25]: 20.6% | viability, T/C [26]: 20.7% | viability, T/C [27]: 28.5% | viability, T/C [28]: 17.1% | viability, T/C [29]: 2.09% | viability, T/C [30]: 0.2% | viability, T/C [31]: 15.2% | viability, T/C [32]: 15.4% | viability, T/C [33]: 14.1% | viability, T/C [34]: 11.8% | viability, T/C [35]: 2.7% | viability, T/C [36]: 0.44%

pIC50 (second compound 0.00949 µM): < 5.00 | pIC50 (second compound 0.03 µM): < 5.00 | pIC50 (second compound 0.0949 µM): 6.23 | pIC50 (second compound 0.3 µM): > 7.50 | pIC50 (second compound 0.949 µM): > 7.50 | pIC50 (second compound 3 µM): > 7.50
Compound: C=CC(=O)N1CCN(c2nc(=O)n(-c3c(C)ccnc3C(C)C)c3nc(-c4c(O)cccc4F)c(F)cc23)C(C)C1 (stereo unspecified) + CCN1C(C(=O)NC23CCC(C(=O)O)(CC2)CC3)C(c2cccc(Cl)c2F)C2(C(=O)Nc3cc(Cl)ccc32)C12CCCCC2
viability, T/C [1]: 109% | viability, T/C [2]: 104% | viability, T/C [3]: 113% | viability, T/C [4]: 107% | viability, T/C [5]: 113% | viability, T/C [6]: 91.1% | viability, T/C [7]: 96.1% | viability, T/C [8]: 93.7% | viability, T/C [9]: 83.3% | viability, T/C [10]: 68.2% | viability, T/C [11]: 82.9% | viability, T/C [12]: 59.8% | viability, T/C [13]: 53.9% | viability, T/C [14]: 56.4% | viability, T/C [15]: 55.3% | viability, T/C [16]: 42.5% | viability, T/C [17]: 45.7% | viability, T/C [18]: 35.5% | viability, T/C [19]: 34.8% | viability, T/C [20]: 33.5% | viability, T/C [21]: 35.6% | viability, T/C [22]: 33% | viability, T/C [23]: 32% | viability, T/C [24]: 32.6% | viability, T/C [25]: 24.5% | viability, T/C [26]: 23.1% | viability, T/C [27]: 20.7% | viability, T/C [28]: 25.2% | viability, T/C [29]: 32.1% | viability, T/C [30]: 21.4% | viability, T/C [31]: 16.6% | viability, T/C [32]: 17.1% | viability, T/C [33]: 19.1% | viability, T/C [34]: 18.3% | viability, T/C [35]: 22.1% | viability, T/C [36]: 24.2%

pIC50 (second compound 0.00949 µM): 7.32 | pIC50 (second compound 0.03 µM): 7.37 | pIC50 (second compound 0.0949 µM): > 8.50 | pIC50 (second compound 0.3 µM): > 8.50 | pIC50 (second compound 0.949 µM): > 8.50 | pIC50 (second compound 3 µM): > 8.50
Compound: COc1c(OCCCN2CCOCC2)ccc2c3n(c(=NC(=O)c4cnc(N)nc4)nc12)CCN3 + CCN1C(C(=O)NC23CCC(C(=O)O)(CC2)CC3)C(c2cccc(Cl)c2F)C2(C(=O)Nc3cc(Cl)ccc32)C12CCCCC2
viability, T/C (second compound 0.00949 µM, first compound 0.00316 µM): 98.8% | viability, T/C (second compound 0.00949 µM, first compound 0.01 µM): 70% | viability, T/C [1]: 54.6% | viability, T/C [2]: 49% | viability, T/C [3]: 14.4% | viability, T/C [4]: 9.39% | viability, T/C (second compound 0.03 µM, first compound 0.00316 µM): 78.7% | viability, T/C (second compound 0.03 µM, first compound 0.01 µM): 77.8% | viability, T/C [7]: 56.1% | viability, T/C [8]: 29% | viability, T/C [9]: 7.5% | viability, T/C [10]: 9% | viability, T/C (second compound 0.0949 µM, first compound 0.00316 µM): 47.8% | viability, T/C (second compound 0.0949 µM, first compound 0.01 µM): 50.3% | viability, T/C [13]: 36.6% | viability, T/C [14]: 18.4% | viability, T/C [15]: 8.59% | viability, T/C [16]: 8.82% | viability, T/C (second compound 0.3 µM, first compound 0.00316 µM): 26.4% | viability, T/C (second compound 0.3 µM, first compound 0.01 µM): 21.5% | viability, T/C [19]: 12.6% | viability, T/C [20]: 4.54% | viability, T/C [21]: 7.49% | viability, T/C [22]: 8.96% | viability, T/C (second compound 0.949 µM, first compound 0.00316 µM): 17.9% | viability, T/C (second compound 0.949 µM, first compound 0.01 µM): 10.1% | viability, T/C [25]: 4.6% | viability, T/C [26]: 6.32% | viability, T/C [27]: 8.83% | viability, T/C [28]: 8.95% | viability, T/C (second compound 3 µM, first compound 0.00316 µM): 9.35% | viability, T/C (second compound 3 µM, first compound 0.01 µM): 5.25% | viability, T/C [31]: 6.94% | viability, T/C [32]: 6.59% | viability, T/C [33]: 9.64% | viability, T/C [34]: 10%
